# According to ChEMBL document CHEMBL3259563, “The discovery of potent and selective non-steroidal glucocorticoid receptor modulators, suitable for inhalation” (Bioorg Med Chem Lett, 2014):
# Assays:
# [1] = Thermodynamic solubility of the amorphous compound in 0.1 M phosphate buffer at pH 7.4 at 25 degC after 24 hrs; assay type: physicochemical; conditions: read-out: Therm_solubility
# Cytochrome P450 2C9 = Cytochrome P450 2C9 (Homo sapiens, UniProt P11712); assay: Inhibition of CYP2C9 (unknown origin); assay type: ADME
# Cytochrome P450 2C9, sequence (P11712 whole entry): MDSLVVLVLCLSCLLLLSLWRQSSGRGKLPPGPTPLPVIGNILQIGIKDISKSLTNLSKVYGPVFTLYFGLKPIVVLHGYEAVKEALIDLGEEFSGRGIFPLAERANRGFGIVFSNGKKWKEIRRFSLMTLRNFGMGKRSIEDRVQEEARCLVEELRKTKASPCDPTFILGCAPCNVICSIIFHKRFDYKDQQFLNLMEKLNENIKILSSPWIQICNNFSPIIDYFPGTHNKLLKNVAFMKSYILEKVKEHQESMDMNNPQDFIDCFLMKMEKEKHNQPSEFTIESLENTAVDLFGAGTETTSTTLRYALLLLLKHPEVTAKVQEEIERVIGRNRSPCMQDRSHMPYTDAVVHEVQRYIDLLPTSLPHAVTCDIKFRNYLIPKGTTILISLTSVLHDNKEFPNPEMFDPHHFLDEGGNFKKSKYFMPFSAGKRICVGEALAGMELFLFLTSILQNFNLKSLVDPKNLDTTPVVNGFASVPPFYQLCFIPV
# Hepatocyte = assay: Intrinsic clearance in human hepatocytes; assay type: ADME, cell-based
# Lung = assay: Drug uptake in intratracheally dosed rat lung after 4 hrs; assay type: ADME, organism-based; conditions: in vivo, inhaled_or_intranasal
# Cytochrome P450 2C19 = Cytochrome P450 2C19 (Homo sapiens, UniProt P33261); assay: Inhibition of CYP2C19 (unknown origin); assay type: ADME
# Cytochrome P450 2C19, sequence (P33261 whole entry): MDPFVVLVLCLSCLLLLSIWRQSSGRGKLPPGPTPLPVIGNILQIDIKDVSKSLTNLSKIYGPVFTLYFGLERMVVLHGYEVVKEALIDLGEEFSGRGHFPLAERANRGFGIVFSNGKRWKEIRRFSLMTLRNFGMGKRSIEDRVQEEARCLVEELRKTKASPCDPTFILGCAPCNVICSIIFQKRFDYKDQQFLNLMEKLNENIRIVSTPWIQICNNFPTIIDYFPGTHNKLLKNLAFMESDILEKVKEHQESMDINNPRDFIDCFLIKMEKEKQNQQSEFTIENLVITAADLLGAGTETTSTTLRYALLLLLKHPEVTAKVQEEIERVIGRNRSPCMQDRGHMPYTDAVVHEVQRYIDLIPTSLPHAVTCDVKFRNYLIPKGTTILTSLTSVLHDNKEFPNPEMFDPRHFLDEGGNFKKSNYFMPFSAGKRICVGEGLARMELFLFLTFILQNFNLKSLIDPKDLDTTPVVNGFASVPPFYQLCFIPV
compound,measurement,setting,value
Cc1nn(C2CCCC2)c(C)c1S(=O)(=O)N[C@@H](C)CNc1cccc2c1cnn2-c1ccc(F)nc1,solubility thermodynamic at 24 h,[1],22 µM
same,IC50,Cytochrome P450 2C9,17 µM
same,CLH,Hepatocyte,47 µL/min
same,Drug uptake,Lung,Active
same,IC50,Cytochrome P450 2C19,> 20 µM
